The values that follow come from ChEMBL document CHEMBL1201862, “PubChem BioAssay data set” (2004).

Assay in all cases: inhibition of tumour cell growth, NCI panel, 48 h
In test [1] the test system is Malme-3M.
Test [2] deals with LOX IMVI.
In test [3] the test system is MCF7.
Test [4] deals with SF-539.
Test [5] concerns CCRF-CEM.
The subject of test [6] is M14.
In test [7] the test system is SK-MEL-5.
In test [8] the test system is SNB-19.
For test [9], the system named is OVCAR-5.
Test [10] relates to HCT-116.
For test [11], the system named is NCI-H23.
Test [12] deals with NCI-H460.
Test [13] deals with COLO 205.
Test [14] deals with NCI/ADR-RES.
In test [15] the test system is K562.
Test [16] has as its system MOLT-4.
Test [17] concerns A498.
Test [18] deals with DU-145.
For test [19], the system named is UO-31.

Molecules are shown by their SMILES.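 Dose response: 5 concentrations. Exposure: 48 h. Format: 96-well plates. Endpoint: linear interpolation; highest concentration if not reached. GI50: concentration for 50% inhibition of growth.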 Activity calls are given as the source filed them. No stated cut-off is given here; in the data, active = GI50 up to about 1.1 µM and inactive = higher.

Take `O=P(O)(CCP(=O)(O)c1ccccc1)c1ccccc1`: the GI50 in test [1], in test [2], in [3], in [4], in test [5] and in [6] was > 100 µM (inactive) throughout. Besides, the GI50 in test [7], in test [8], in [9], in test [10], in test [11] and in test [12] was > 100 µM (inactive) in each case. Moreover, the GI50 in test [13], in test [14], in [15], in test [16], in test [17] and in test [18] was > 100 µM (inactive) in each case. Further, in test [19], the GI50 is > 100 µM (inactive).

Turning to `CC(=O)OCC1OC(OCCCOP(=O)(OCCC#N)OCC2OC(n3cnc4c(N)ncnc43)C(OC(=O)c3ccccc3)C2OC(=O)c2ccccc2)C(OC(C)=O)C(OC(C)=O)C1OC(C)=O` (stereo not given), the GI50 in test [1] is 1.06 µM (active); in [2], > 100 µM (inactive); in [3], > 100 µM (inactive); in test [4], > 100 µM (inactive); in test [5], > 100 µM (inactive); in test [6] it was > 100 µM (inactive). Besides, the GI50 in [7], in test [8], in test [9], in test [10], in test [11] and in test [12] was > 100 µM (inactive) throughout. In addition, the GI50 in [13], in test [14], in test [15], in [16], in [17] and in test [18] was > 100 µM (inactive) each time. The GI50 in [19] is > 100 µM (inactive).

`CN(C)CCC(=O)[C@@]1(O)CC[C@H]2[C@@H]3CC=C4C[C@@H](O)CC[C@]4(C)[C@H]3CC[C@@]21C`: the GI50 was 15.3 µM (inactive) in [1]; 13.7 µM (inactive) in test [2]; 4.38 µM (inactive) in test [3]; 2.6 µM (inactive) in test [4]; 5.25 µM (inactive) in [5]; 18.2 µM (inactive) in test [6]. Besides, the GI50 in [7] is 29.9 µM (inactive); in test [8], 25.6 µM (inactive); in test [9], > 61.5 µM (inactive); in [10], 18 µM (inactive); in test [11], 23.6 µM (inactive); in test [12], 15.4 µM (inactive). For the same compound, the GI50 in test [13] was 18.4 µM (inactive); in test [14] it was 26.7 µM (inactive); in [15] it was 18.2 µM (inactive); in test [16] it was 13.9 µM (inactive); in [17], 16.1 µM (inactive); in test [18] it was 6.65 µM (inactive). Besides, the GI50 in test [19] is 15.6 µM (inactive).

Regarding `COc1ccc(-c2cc(-c3ccccc3)nc(/N=C\c3ccccc3)n2)c(O)c1`, the GI50 was > 80.4 µM (inactive) in test [1]; 8.05 µM (inactive) in test [2]; 1.64 µM (inactive) in test [3]; > 100 µM (inactive) in [4]; 4.06 µM (inactive) in test [5]; > 100 µM (inactive) in test [6]. The GI50 in test [7] was 7.05 µM (inactive); in test [8], > 36.5 µM (inactive); in [9], > 100 µM (inactive); in test [10] it was > 26.6 µM (inactive); in test [11] it was > 100 µM (inactive); in test [12] it was 6.81 µM (inactive). The GI50 is > 100 µM (inactive) in test [13]; > 86.5 µM (inactive) in [14]; 2.44 µM (inactive) in test [15]; 4.04 µM (inactive) in test [16]; > 100 µM (inactive) in test [17]; 7.62 µM (inactive) in test [18]. For the same compound, the GI50 in test [19] is 3.99 µM (inactive).

Turning to `CCOP(=O)(OCC)OC1c2[nH]cc(C(=O)OCc3ccccc3)c2-c2cc(C(=O)OC)[nH]c2C1OC` (stereo not given), the GI50 was 9.06 µM (inactive) in test [1]; 4.56 µM (inactive) in test [2]; 8.67 µM (inactive) in test [3]; 8.45 µM (inactive) in test [4]; > 24.8 µM (inactive) in test [5]; 9.08 µM (inactive) in test [6]. Besides, the GI50 in test [7] is 7.46 µM (inactive); in test [8], 14.7 µM (inactive); in test [9], 37 µM (inactive); in test [10] it was 6.4 µM (inactive); in test [11], 13.4 µM (inactive); in test [12], 4.55 µM (inactive). Also, the GI50 in test [13] was 6.89 µM (inactive); in test [14] it was 7.53 µM (inactive); in test [15], > 20 µM (inactive); in [16], 3.58 µM (inactive); in test [17], 10.6 µM (inactive); in test [18], 11 µM (inactive). In addition, in test [19], the GI50 is 4.57 µM (inactive).

`CCOC(=O)c1cc(C2CCN(c3ccccc3)C2=O)c(C(=O)/C=C(/C)O)[nH]1` (stereo not given): the GI50 is > 100 µM (inactive) in [1]; 58.6 µM (inactive) in [2]; 59.8 µM (inactive) in test [3]; 8.38 µM (inactive) in test [4]; 59.6 µM (inactive) in test [5]; > 100 µM (inactive) in test [6]. Further, the GI50 in test [7] was 36.3 µM (inactive); in test [8], > 100 µM (inactive); in test [9], > 100 µM (inactive); in [10] it was 65.8 µM (inactive); in test [11] it was 55.6 µM (inactive); in [12], > 100 µM (inactive). Besides, the GI50 in test [13] is > 100 µM (inactive); in test [14] it was 73.5 µM (inactive); in test [15], 64 µM (inactive); in [16], 42.7 µM (inactive); in test [17], > 100 µM (inactive); in test [18], > 100 µM (inactive). The GI50 in test [19] is 66.7 µM (inactive).

Regarding `O=C(/C=C/c1ccc(-c2ccccc2)cc1)NCc1ccc(C(=O)NCCc2ccccc2)cc1`, the GI50 in test [1] was 31.6 µM (inactive); in test [2] it was 41.1 µM (inactive); in test [3] it was 25.4 µM (inactive); in test [4], 12.3 µM (inactive); in test [5], 18.5 µM (inactive); in test [6], > 100 µM (inactive). Further, the GI50 in test [7] is > 100 µM (inactive); in test [8] it was > 100 µM (inactive); in [9], > 100 µM (inactive); in test [10], 34.4 µM (inactive); in [11], > 100 µM (inactive); in test [12], > 100 µM (inactive). Also, the GI50 in test [13] is > 100 µM (inactive); in test [14], > 100 µM (inactive); in test [15], 88.5 µM (inactive); in test [16] it was 96.6 µM (inactive); in [17], > 100 µM (inactive); in [18], > 100 µM (inactive). Moreover, the GI50 in test [19] is > 100 µM (inactive).

For the compound `O=C1C(CN2CCCC2)CCC1CN1CCCC1` (stereo not given), the GI50 in test [1] was 15.1 µM (inactive); in test [2], 20.8 µM (inactive); in test [3], 19.4 µM (inactive); in test [4], 19.5 µM (inactive); in test [5], 3.52 µM (inactive); in [6] it was 15.8 µM (inactive). Besides, the GI50 is 17.3 µM (inactive) in [7]; > 100 µM (inactive) in [8]; > 41.3 µM (inactive) in [9]; 17.5 µM (inactive) in [10]; 20.7 µM (inactive) in test [11]; > 100 µM (inactive) in test [12]. Also, the GI50 in test [13] was 5.71 µM (inactive); in [14], 23.9 µM (inactive); in [15], 2.9 µM (inactive); in [16], 5.31 µM (inactive); in test [17], > 100 µM (inactive); in [18] it was 97.3 µM (inactive). Besides, the GI50 in test [19] was 17.8 µM (inactive).

In the case of `C/C(=C\COc1cc(O)c2c(c1)C(=O)c1cc(C)cc(O)c1C2=O)CCC1OC1(C)C` (stereo not given), the GI50 in [1] is > 100 µM (inactive); in [2], > 100 µM (inactive); in test [3] it was 38.4 µM (inactive); in [4], 74 µM (inactive); in [5], 11.2 µM (inactive); in test [6], > 100 µM (inactive). Also, the GI50 in [7] is 31.2 µM (inactive); in test [8] it was > 100 µM (inactive); in [9] it was > 100 µM (inactive); in [10], 77.8 µM (inactive); in test [11], > 100 µM (inactive); in test [12], 10.3 µM (inactive). For the same compound, the GI50 in [13] was > 100 µM (inactive); in test [14] it was > 100 µM (inactive); in test [15], 83.8 µM (inactive); in [16], 7.85 µM (inactive); in test [17] it was > 100 µM (inactive); in test [18], > 100 µM (inactive). For the same compound, the GI50 in test [19] was > 100 µM (inactive).

On to `O=C(CCc1cccc(O)c1)NCCc1ccc(O)cc1`, for which the GI50 in test [1], in [2], in test [3], in test [4], in [5] and in test [6] was > 100 µM (inactive) each time. Also, the GI50 in [7], in test [8], in [9], in test [10], in test [11] and in test [12] was > 100 µM (inactive) each time. The GI50 in [13], in [14], in [15], in test [16], in [17] and in [18] was > 100 µM (inactive) in each case. The GI50 in test [19] is > 100 µM (inactive).
